In patent publication US20240190868A1, “SOS1 INHIBITORS” (Acerand Therapeutics (USA) Limited, priority 2022, published 2024) one finds IC50 data, which are given here for 23 compounds.

Molecules are shown by their SMILES.

The assay deals with cellular pERK in NCI-H1975 cells (EGFR/L858R-T790M). The assay is described as follows: pERK potency assay (In Cell ELISA). The assay is classed as cell-based. The note with it: Homo sapiens, 1 h compound incubation. An excerpt:
The assay measures the ability of a compound to inhibit SOS1 function in cells. SOS1 activates RAS proteins by catalyzing the conversion of RAS GDP to RAS GTP in response to receptor tyrosine kinase activation. Activation of RAS induces a sequence of cellular signaling events that result in increased phosphorylation of ERK at Threonine 202 and Tyrosine 204 (pERK). The procedure (i.e., In Cell ELISA as described below) measures the level of cellular pERK in response to a test compound in NCI-H1975 cells (EGFR/L858R-T790M).
First, NCI-H1975 cells were grown and maintained using media and procedures recommended by the ATCC. A day before compound addition, cells were plated in poly-D-lysine coated 96-well cell culture plates (Corning® BioCoat® Cat #356640) at 25000 cells/well/100 μL and grown overnight in an incubator at 37° C. with 5% CO2. A solution of a test compound was prepared with 3-fold serial dilutions in DMSO having a top concentration of 6 mM. On the day of the assay, 50 μL of a test compound dilution in media was added to each well of cell culture plate with a final compound concentration in the range of 0.001 μM to 20 μM. After addition of the compound, cells were incubated for 1 h at 37° C. with 5% CO2, after which the culture medium was removed. Cells were fixed with 4% formaldehyde in phosphate-buffered saline (PBS) and incubated at RT for 20 min. The plate was washed three times with PBST (PBS with 0.05% Tween®-20), followed by incubation with 100 μL of pre-cooled methanol at −20° C. for 20 min. After incubation, methanol was removed. The plate was again washed with PBST. Cells were then permeabilized with 100 μL/well of 0.1% Triton X-100 in PBS at RT for 20 min and then quenched with a quenching buffer (PBST containing 1% H2O2 and 0.1% sodium azide) for 20 min at RT with gentle shaking. After washing once with PBST, a blocking buffer (250 uL/well, Pierce™ Protein-Free-PBS Blocking Buffer, Cat #37572) was then added to the cells for 1-h incubation at RT, followed by an anti-pERK antibody (cell signaling, 1:1000 dilution in 5% BSA in PBST) incubation overnight at 4° C. and a secondary antibody-HRP (Jackson immunoresearch, 1:3000 dilution in 5% BSA in PBST) incubation at RT for 1 h. PBST wash was carried out after each step three times. Before the addition of a substrate (Advansta ELISABright™), the plate was washed with PBS twice to remove detergent residues. The Cellular pERK level was determined using the microplate reader (Biotek Synergy™ H1) to detect the chemiluminescence signal. IC50 was determined by fitting a 4-parameter sigmoidal concentration-response model.
Background: ELISA stands for enzyme-linked immunosorbent assay.
Broadly, the IC50 is the concentration needed to halve the response being measured. Take `Cc1c(C#N)cccc1[C@@H](C)/N=c1\nc(C)n(C)c2cnc(N3CCC4(CC4)C3)cc12` [Compound 65]: the 50% inhibitory concentration (IC50) was below 100 nM.

With `Cc1c(C#N)cccc1[C@@H](C)/N=c1\nc(C)n(C)c2cnc(N3CCC(F)(F)C3)cc12` [Compound 66], the IC50 was below 100 nM.

For the compound `Cc1c(C#N)cccc1[C@@H](C)/N=c1\nc(C)n(C)c2cnc(N3CCC(C)(O)CC3)cc12` [Compound 67], the IC50 is below 100 nM.

With `CC(=O)N1CCN(c2cc3/c(=N/[C@H](C)c4cccc(C(F)(F)F)c4C)nc(C)n(C)c3cn2)C(=O)C1` [Compound 68], the half-maximal inhibitory concentration (IC50) was below 100 nM.

`Cc1c(C#N)cccc1[C@@H](C)/N=c1\nc(C)n(C)c2cnc(N3CC(F)C3)cc12` [Compound 69]: the concentration for half-maximal inhibition (IC50) was below 100 nM.

Consider `Cc1c(C#N)cccc1[C@@H](C)/N=c1\nc(C)n(C)c2cnc(N3CCC3)cc12` [Compound 71], for which the 50% inhibitory concentration (IC50) was below 100 nM.

`Cc1c(C#N)cccc1[C@@H](C)/N=c1\nc(C)n(C)c2cnc(N3CC4CC4C3)cc12` (some centres unmarked) [Compound 72]: the 50% inhibitory concentration (IC50) was below 100 nM.

With `Cc1c(C#N)cccc1[C@@H](C)/N=c1\nc(C)n(C)c2cnc(N3CC(C)(O)C3)cc12` [Compound 73], the half-maximal inhibitory concentration (IC50) was below 100 nM.

For the compound `Cc1c(C#N)cccc1[C@@H](C)/N=c1\nc(C)n(C)c2cnc(N3CCOC[C@H]3C)cc12` [Compound 74], the IC50 is below 100 nM.

As for `COC1CN(c2cc3/c(=N/[C@H](C)c4cccc(C#N)c4C)nc(C)n(C)c3cn2)C1` [Compound 76], the concentration for half-maximal inhibition (IC50) was below 100 nM.

`Cc1c([C@@H](C)/N=c2\nc3n(c4cnc(N5CCOCC5)cc24)CCC3)cccc1C(F)(F)F` [Compound 77]: the IC50 was below 100 nM.

For the compound `Cc1c([C@@H](C)/N=c2\nc(C)n(C(C)C)c3cnc(N4CCOCC4)cc23)cccc1C(F)(F)F` [Compound 78], the 50% inhibitory concentration (IC50) is below 100 nM.

In the case of `Cc1c([C@@H](C)/N=c2\nc(C)n(C3CC3)c3cnc(N4CCOCC4)cc23)cccc1C(F)(F)F` [Compound 79], the IC50 is below 100 nM.

Turning to `Cc1c([C@@H](C)/N=c2\nc(C)n(C)c3cnc(N4CCn5c(C(F)F)cnc5C4)cc23)cccc1C(F)(F)F` [Compound 80, (R,Z)-6-(3-(difluoromethyl)-5,6-dihydroimidazo[1,2-a]pyrazin-7(8H)-yl)-1,2-dimethyl-N-(1-(2-methyl-3-(trifluoromethyl)phenyl)ethyl)pyrido[3,4-d]pyrimidin-4(1H)-imine], the IC50 was below 100 nM.

Turning to `CC(=O)N1CCC(O)(c2cc3/c(=N/[C@H](C)c4cccc(C(F)(F)F)c4C)ncn(C)c3c(=O)n2C)CC1` [Compound 81, (R,Z)-6-(1-acetyl-4-hydroxypiperidin-4-yl)-1,7-dimethyl-4-((1-(2-methyl-3-(trifluoromethyl)phenyl)ethyl)imino)-1,7-dihydropyrido[3,4-d]pyrimidin-8(4H)-one], the IC50 was below 100 nM.

As to `CC(=O)N1CC=C(c2cc3/c(=N/[C@H](C)c4cccc(C(F)(F)F)c4C)ncn(C)c3c(=O)n2C)CC1` [Compound 82, (R,Z)-6-(1-acetyl-1,2,3,6-tetrahydropyridin-4-yl)-1,7-dimethyl-4-((1-(2-methyl-3-(trifluoromethyl)phenyl)ethyl)imino)-1,7-dihydropyrido[3,4-d]pyrimidin-8(4H)-one], the IC50 is below 100 nM.

On to `COc1cc2c(cc1O[C@H]1CCOC1)/c(=N/[C@H](C)c1cccc(C(F)(F)F)c1C)nc(C)n2C` [Compound 84, (Z)-7-methoxy-1,2-dimethyl-N—((R)-1-(2-methyl-3-(trifluoromethyl)phenyl)ethyl)-6-(((S)-tetrahydrofuran-3-yl)oxy)quinazolin-4(1H)-imine], for which the concentration for half-maximal inhibition (IC50) is below 100 nM.

Take `CC(=O)NCC#Cc1cc2/c(=N/[C@H](C)c3cccc(C(F)F)c3F)nc(C)n(C)c2cn1` [Compound 85, (R,Z)—N-(3-(4-((1-(3-(difluoromethyl)-2-fluorophenyl)ethyl)imino)-1,2-dimethyl-1,4-dihydropyrido[3,4-d]pyrimidin-6-yl)prop-2-yn-1-yl)acetamide]: the half-inhibitory concentration (IC50) was below 100 nM.

`CC(=O)N1CCN(C(=O)c2cc3/c(=N/[C@H](C)c4cccc(C(F)F)c4F)nc(C)n(C)c3cn2)CC1` [Compound 89, (R,Z)-1-(4-(4-((1-(3-(difluoromethyl)-2-fluorophenyl)ethyl)imino)-1,2-dimethyl-1,4-dihydropyrido[3,4-d]pyrimidine-6-carbonyl)piperazin-1-yl)ethan-1-one]: the IC50 was below 100 nM.

Regarding `CC(=O)N1CCN2c3cc4/c(=N/[C@H](C)c5cccc(C(F)F)c5F)ncn(C)c4cc3OC[C@H]2C1` [Compound 92, 1-((R,Z)-11-(((R)-1-(3-(difluoromethyl)-2-fluorophenyl)ethyl)imino)-8-methyl-1,2,4a,5,8,11-hexahydropyrazino[1′,2′:4,5][1,4]oxazino[3,2-g]quinazolin-3(4H)-yl)ethan-1-one], the IC50 is below 100 nM.

Turning to `Cc1n/c(=N\[C@H](C)c2cccc(C(F)F)c2F)c2cc(C3(C(F)F)CC3)ncc2n1C` [Compound 94, (R,Z)—N-(1-(3-(difluoromethyl)-2-fluorophenyl)ethyl)-6-(1-(difluoromethyl)cyclopropyl)-1,2-dimethylpyrido[3,4-d]pyrimidin-4(1H)-imine], the IC50 was below 100 nM.

For `Cc1n/c(=N\[C@H](C)c2cccc(C(F)F)c2F)c2cc(C3=CCN(S(C)(=O)=O)CC3)ncc2n1C` [Compound 97, (R,Z)—N-(1-(3-(difluoromethyl)-2-fluorophenyl)ethyl)-1,2-dimethyl-6-(1-(methylsulfonyl)-1,2,3,6-tetrahydropyridin-4-yl)pyrido[3,4-d]pyrimidin-4(1H)-imine], the 50% inhibitory concentration (IC50) is below 100 nM.

As to `CC(=O)NC/C=C/c1cc2/c(=N/[C@H](C)c3cccc(C(F)F)c3F)nc(C)n(C)c2cn1` [Compound 98, N-((E)-3-((Z)-4-(((R)-1-(3-(difluoromethyl)-2-fluorophenyl)ethyl)imino)-1,2-dimethyl-1,4-dihydropyrido[3,4-d]pyrimidin-6-yl)allyl)acetamide], the IC50 is below 100 nM.
